Experimental data: US20100016379A1, “Terephthalamate Compounds and Compositions, and Their Use as HIV Integrase Inhibitors” (IRM LLC, priority 2006, published 2010)
Read-outs that look alike come from different tables or passages of the source.

How the values were obtained:
HIV = experiment: cell-based HIV luciferase reporter infection assay (Screen 1); settings: for EC50: Human immunodeficiency virus 1, read-out: HIV Activity EC50
Description: HIV therapeutic agents inhibit propagation of HIV in cells, and as such cell-based assays of HIV antiviral activity have been developed. For example, Pauwels et al, Nature (1990) 343: 470-4 describe incubating HIV infected cells with test compounds and subsequently determining cell viability via colorimetric methods, to give an EC50 for the inhibition of HIV-1 replication.
Screen 1: A high throughput cell-based HIV luciferase reporter infection assay (see He et al, Bioorg. Med. Chem. Lett. (2006) 16) that identifies inhibitors of early HIV infection events. The results are shown in Table 2 below, expressed as EC50 (μM), the molar concentration that produces 50% of the maximal possible response.

[1] = cytotoxicity assay (Screen 3); assay type: cell-based; settings: human, HE 293T cells
Text: Screen 3: A cytotoxicity assay, to determine inhibitory activity against HE 293T cells.

HIV-1 integrase = molecular target: T1, HIV-1 integrase (Human immunodeficiency virus type 1 group M subtype B, UniProt P04585); experiment: HIV-1 integrase strand transfer assay (Screen 2); assay type: biochemical
T1 construct: An HIV-1 integrase strand transfer assay
Text: Screen 2: An HIV-1 integrase strand transfer assay, (see Wang et al, J. Biomol. Screen. (2005) 10: 456), that identifies anti-HIV activity due to inhibition of HIV integrase.

[2] = test system: NNRTI resistant mutant L100I; experiment: Inhibition of NNRTI resistant mutants, L100I; assay type: cell-based, HIV; settings: Human immunodeficiency virus 1, read-out: Inhibition of NNRTI resistant mutants (EC50) L100I
Description: (§1) Select compounds are assayed against key NNRTI resistant mutants.

[3] = test system: NNRTI resistant mutant Y181C; experiment: Inhibition of NNRTI resistant mutants, Y181C; assay type: cell-based, HIV; settings: Human immunodeficiency virus 1, read-out: Inhibition of NNRTI resistant mutants (EC50) Y181C
Description: as §1

WT = experiment: Inhibition of NNRTI resistant mutants, WT; assay type: cell-based, HIV; settings: Human immunodeficiency virus 1, read-out: Inhibition of NNRTI resistant mutants (EC50) WT
Description: as §1

[4] = test system: NNRTI resistant mutant K103N; experiment: Inhibition of NNRTI resistant mutants, K103N; assay type: cell-based, HIV; settings: Human immunodeficiency virus 1, read-out: Inhibition of NNRTI resistant mutants (EC50) K103N
Description: as §1

[5] = test system: NNRTI resistant mutant Y188L; experiment: Inhibition of NNRTI resistant mutants, Y188L; assay type: cell-based, HIV; settings: Human immunodeficiency virus 1, read-out: Inhibition of NNRTI resistant mutants (EC50) Y188L
Description: as §1

[6] = strand transfer assay, read-out: Integrase Activity IC50

## O=C(NCc1ccccc1)c1cccnc1O [Compound 6, N-benzyl-2-hydroxypyridine-3-carboxamide]
HIV
  EC50: > 2000 nM
[1]
  CC50: > 2000 nM

## COC(=O)c1ccc(C(=O)NCc2ccccc2C(F)(F)F)c(O)c1O [Compound 13, methyl 4-(2-(trifluoromethyl)benzylcarbamoyl)-2,3-dihydroxybenzoate]
HIV
  EC50: 50 to 500 nM
HIV-1 integrase; [6]
  IC50: 50 to 500 nM
[1]
  CC50: 500 to 2000 nM

## COC(=O)c1ccc(C(=O)NCc2ccccc2[N+](=O)[O-])c(O)c1O [Compound 10, methyl 4-(2-nitrobenzylcarbamoyl)-2,3-dihydroxybenzoate]
HIV
  EC50: 50 to 500 nM
[2]
  EC50: < 50 nM
[3]
  EC50: 50 to 500 nM
WT
  EC50: 50 to 500 nM
[4]
  EC50: < 50 nM
HIV-1 integrase; [6]
  IC50: < 50 nM
[1]
  CC50: 500 to 2000 nM
[5]
  EC50: 50 to 500 nM

## COC(=O)c1ccc(C(=O)NCc2ccncc2)c(O)c1O [Compound 18, methyl 4-((pyridin-4-yl)methylcarbamoyl)-2,3-dihydroxybenzoate]
HIV
  EC50: 50 to 500 nM
HIV-1 integrase; [6]
  IC50: 50 to 500 nM
[1]
  CC50: > 2000 nM

## COC(=O)c1ccc(C(=O)Nc2ccccc2)c(O)c1O [Compound 20, methyl 4-(phenylcarbamoyl)-2,3-dihydroxybenzoate]
HIV
  EC50: < 50 nM
[2]
  EC50: < 50 nM
[3]
  EC50: < 50 nM
WT
  EC50: < 50 nM
[4]
  EC50: < 50 nM
HIV-1 integrase; [6]
  IC50: < 50 nM
[1]
  CC50: 500 to 2000 nM
[5]
  EC50: < 50 nM

## COC(=O)c1ccc(C(=O)NCc2cccnc2)c(O)c1O [Compound 17, methyl 4-((pyridin-3-yl)methylcarbamoyl)-2,3-dihydroxybenzoate]
HIV
  EC50: 50 to 500 nM
HIV-1 integrase; [6]
  IC50: 50 to 500 nM
[1]
  CC50: > 2000 nM

## COC(=O)c1ccc(C(=O)N(C)Cc2ccccc2)c(O)c1O [Compound 19, methyl 4-(N-benzyl-N-methylcarbamoyl)-2,3-dihydroxybenzoate]
HIV
  EC50: > 2000 nM
HIV-1 integrase; [6]
  IC50: > 2000 nM
[1]
  CC50: > 2000 nM

## COC(=O)c1ccc(C(=O)NCc2ccc([N+](=O)[O-])cc2)c(O)c1O [Compound 12, methyl 4-(4-nitrobenzylcarbamoyl)-2,3-dihydroxybenzoate]
HIV
  EC50: 50 to 500 nM
HIV-1 integrase; [6]
  IC50: 50 to 500 nM
[1]
  CC50: 500 to 2000 nM

## COC(=O)c1ccc(C(=O)NCc2ccc(C(F)(F)F)cc2)c(O)c1O [Compound 15, methyl 4-(4-(trifluoromethyl)benzylcarbamoyl)-2,3-dihydroxybenzoate]
HIV
  EC50: 500 to 2000 nM
HIV-1 integrase; [6]
  IC50: 500 to 2000 nM
[1]
  CC50: 500 to 2000 nM

## COC(=O)c1ccc(C(=O)NCc2ccccc2)c(O)c1O [Compound 1, methyl 4-(benzylcarbamoyl)-2,3-dihydroxybenzoate]
HIV
  EC50: 50 to 500 nM
HIV-1 integrase
  IC50: 50 to 500 nM
[1]
  CC50: > 2000 nM

## O=C(NCc1ccccc1)c1cccc(O)c1 [Compound 3, N-benzyl-3-hydroxybenzamide]
HIV
  EC50: > 2000 nM
[1]
  CC50: > 2000 nM

## COC(=O)c1ccc(C(=O)NCc2cccc(C(F)(F)F)c2)c(O)c1O [Compound 14, methyl 4-(3-(trifluoromethyl)benzylcarbamoyl)-2,3-dihydroxybenzoate]
HIV
  EC50: 500 to 2000 nM
HIV-1 integrase; [6]
  IC50: 50 to 500 nM
[1]
  CC50: 500 to 2000 nM

## COC(=O)c1ccc(C(=O)NCc2ccccc2OC)c(O)c1O [Compound 7, methyl 4-(2-methoxybenzylcarbamoyl)-2,3-dihydroxybenzoate]
HIV
  EC50: < 50 nM
[2]
  EC50: < 50 nM
[3]
  EC50: 50 to 500 nM
WT
  EC50: < 50 nM
[4]
  EC50: < 50 nM
HIV-1 integrase; [6]
  IC50: < 50 nM
[1]
  CC50: 500 to 2000 nM
[5]
  EC50: 50 to 500 nM

## O=C(NCc1ccccc1)c1cccc(O)c1O [Compound 2, N-benzyl-2,3-dihydroxybenzamide]
HIV
  EC50: > 2000 nM
[1]
  CC50: > 2000 nM

## COC(=O)c1ccc(C(=O)NCc2cccc([N+](=O)[O-])c2)c(O)c1O [Compound 11, methyl 4-(3-nitrobenzylcarbamoyl)-2,3-dihydroxybenzoate]
HIV
  EC50: < 50 nM
[2]
  EC50: < 50 nM
[3]
  EC50: 50 to 500 nM
WT
  EC50: < 50 nM
[4]
  EC50: < 50 nM
HIV-1 integrase; [6]
  IC50: < 50 nM
[1]
  CC50: 500 to 2000 nM
[5]
  EC50: < 50 nM

## O=C(NCc1ccccc1)c1ccccc1O [Compound 4, N-benzyl-2-hydroxybenzamide]
HIV
  EC50: > 2000 nM
[1]
  CC50: > 2000 nM

## O=C(NCc1ccccc1)c1cccc(O)n1 [Compound 5, N-benzyl-6-hydroxypyridine-2-carboxamide]
HIV
  EC50: > 2000 nM
[1]
  CC50: > 2000 nM

## CC(C)Oc1ccc(Cc2ccccc2)cc1C(=O)CC(=O)C(=O)O [DKA, reference compound]
HIV
  EC50: 50 to 500 nM
[2]
  EC50: 50 to 500 nM
[3]
  EC50: 50 to 500 nM
WT
  EC50: 50 to 500 nM
[4]
  EC50: < 50 nM
HIV-1 integrase; [6]
  IC50: 50 to 500 nM
[1]
  CC50: > 2000 nM
[5]
  EC50: 50 to 500 nM

## COC(=O)c1ccc2c(=O)n(Cc3ccccc3)c(=O)oc2c1O [Compound 21, 3-benzyl-8-hydroxy-2,4-dioxo-3,4-dihydro-2H-benzo[e][1,3]oxazine-7-carboxylic acid methyl ester]
HIV
  EC50: 50 to 500 nM
HIV; result in words
  activity in the cellular assay: maintains activity
[2]
  EC50: 50 to 500 nM
[3]
  EC50: 50 to 500 nM
WT
  EC50: 50 to 500 nM
[4]
  EC50: 50 to 500 nM
HIV-1 integrase
  IC50: 50 to 500 nM
HIV-1 integrase; result in words
  activity in the enzymatic assay: maintains activity
[1]
  CC50: > 2000 nM
[5]
  EC50: 50 to 500 nM

## COC(=O)c1ccc(C(=O)NCc2ccc(OC)cc2)c(O)c1O [Compound 9, methyl 4-(4-methoxybenzylcarbamoyl)-2,3-dihydroxybenzoate]
HIV
  EC50: 500 to 2000 nM
HIV-1 integrase; [6]
  IC50: < 50 nM
[1]
  CC50: > 2000 nM

## COC(=O)c1ccc(C(=O)NCc2cccc(OC)c2)c(O)c1O [Compound 8, methyl 4-(3-methoxybenzylcarbamoyl)-2,3-dihydroxybenzoate]
HIV
  EC50: 50 to 500 nM
[2]
  EC50: 50 to 500 nM
[3]
  EC50: 50 to 500 nM
WT
  EC50: 50 to 500 nM
[4]
  EC50: 50 to 500 nM
HIV-1 integrase; [6]
  IC50: < 50 nM
[1]
  CC50: > 2000 nM
[5]
  EC50: 50 to 500 nM

## Cc1ccnc2c1NC(=O)c1cccnc1N2C1CC1 [NVP, Nevirapine, reference compound]
HIV
  EC50: 50 to 500 nM
[2]
  EC50: 50 to 500 nM
[3]
  EC50: > 2000 nM
WT
  EC50: 50 to 500 nM
[4]
  EC50: > 2000 nM
[1]
  CC50: > 2000 nM
[5]
  EC50: > 2000 nM

## COC(=O)c1ccc(C(=O)NCc2ccccn2)c(O)c1O [Compound 16, methyl 4-((pyridin-2-yl)methylcarbamoyl)-2,3-dihydroxybenzoate]
HIV
  EC50: 50 to 500 nM
[2]
  EC50: 50 to 500 nM
[3]
  EC50: 50 to 500 nM
WT
  EC50: 50 to 500 nM
[4]
  EC50: 50 to 500 nM
HIV-1 integrase; [6]
  IC50: 50 to 500 nM
[1]
  CC50: > 2000 nM
[5]
  EC50: 50 to 500 nM
